Experimental data: US6596308B2, “Controlled release pharmaceutical composition” (Kos Pharmaceuticals, Incorporated, priority 2001, dated 2003)

Experiment: dissolution release of hard shell capsule formulations, USP Basket Method (Apparatus 1)

time in which lovastatin was completely released (in vitro release, FIG. 2) (Precirol ATO5 capsule systems containing the fast hydrating Methocel polymers, water with 1% sodium dodecyl sulfate, 37° C., 100 RPM): 4 h | period over which sustained release of lovastatin was obtained (in vitro release, FIG. 2) (Precirol ATO5 capsule systems containing the non-hydrating Ethocel, water with 1% sodium dodecyl sulfate, 37° C., 100 RPM): 24 h | rank order of release rate by cellulose polymer (FIG. 1) (lovastatin, Compritol 888 capsule system, fastest hydrating polymers gave faster release): Methocel K>Methocel E>Ethocel
Compound: CC[C@H](C)C(=O)O[C@H]1C[C@@H](C)C=C2C=C[C@H](C)[C@H](CC[C@@H]3C[C@@H](O)CC(=O)O3)[C@H]21 [lovastatin]
release of lovastatin by type of cellulosic polymer, compritol formulation (lovastatin, compritol, Methocel K100M vs Ethocel P20): released considerably faster from a formulation of Methocel K100M than Ethocel P20 | release of lovastatin by type of cellulosic polymer, precirol formulation (lovastatin/precirol, Methocel K100M vs Ethocel P20): faster when the formulation contains Methocel K100M than Ethocel P20 | release of lovastatin by type of high melting fatty acid ester (same cellulose (methocel) component, prolonged period of about 24 hours): fastest with Precirol AT05, slowest with Compritol 888
